Assay results as given in PubChem BioAssay (NCI).
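Assay format: 96-well plates, 48-hour exposure. At the GI50, growth is halved. TGI is the concentration that stops growth completely.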

Assays:
Assay in all cases: inhibition of tumour cell growth, NCI panel, 48 h
A498 renal = system: A498 renal
ACHN renal = system: ACHN renal
CCRF-CEM leukemia = system: CCRF-CEM leukemia
HL-60(TB) leukemia = system: HL-60(TB) leukemia
IGROV1 ovarian = system: IGROV1 ovarian
K-562 leukemia = system: K-562 leukemia
MOLT-4 leukemia = system: MOLT-4 leukemia
RXF 393 renal = system: RXF 393 renal
U251 CNS = system: U251 CNS

Structure (SMILES)	TGI (A498 renal) [µM]	TGI (ACHN renal) [µM]	TGI (CCRF-CEM leukemia) [µM]	TGI (HL-60(TB) leukemia) [µM]	TGI (IGROV1 ovarian) [µM]	TGI (K-562 leukemia) [µM]	TGI (MOLT-4 leukemia) [µM]	TGI (RXF 393 renal) [µM]	TGI (U251 CNS) [µM]	GI50 (A498 renal) [µM]	GI50 (ACHN renal) [nM]	GI50 (CCRF-CEM leukemia) [µM]	GI50 (HL-60(TB) leukemia) [nM]	GI50 (IGROV1 ovarian) [nM]	GI50 (K-562 leukemia) [µM]	GI50 (MOLT-4 leukemia) [nM]	GI50 (RXF 393 renal) [nM]	GI50 (U251 CNS) [nM]
O=S(=O)(NCn1ccc2ccccc21)c1ccccc1	> 100	> 100	> 100	41	> 100	> 100	> 100	> 100	> 100	–	–	–	–	–	–	–	–	–
O=C(O)CCNCCCCNCCC(=O)O	> 100	> 100	> 100	> 100	> 100	> 100	> 100	> 100	> 100	–	–	–	–	–	–	–	–	–
C=CCO/N=C(\OC(=O)c1ccc([N+](=O)[O-])cc1)c1ccccc1	> 100	> 100	> 100	–	> 100	> 100	–	–	> 100	–	–	–	–	–	–	–	–	–
C=CCC1=C(C)C[C@@H]2CCC(=O)C=C12	> 100	> 100	> 100	> 100	> 100	> 100	> 100	> 100	> 100	–	–	–	–	–	–	–	–	–
CSCCCNC(=O)c1ccc2c(c1)/C(=C/c1[nH]c(C)cc1C)C(=O)N2	2.7	> 100	> 100	> 100	> 100	> 100	> 100	37.1	> 100	0.47	299	4.36	2540	421	2.01	1700	977	675
CC1CCSC(N(C(=O)N(C)c2ccccc2)c2ccccc2)=N1 (stereo unspecified)	> 100	> 100	> 100	> 100	> 100	> 100	> 100	> 100	> 100	–	–	–	–	–	–	–	–	–
N.N.N.N.N.O=[N+]([O-])[O-].[Co+3].[O-][Cl+3]([O-])([O-])[O-]	> 100	> 100	> 100	> 100	> 100	> 100	> 100	–	> 100	> 100	> 100000	> 100	> 100000	> 100000	> 100	> 100000	–	> 100000
COc1ccc(C(=O)NNc2nc(Cl)nc(N3CCN(C(c4ccccc4)c4ccccc4)CC3)n2)cc1	23.2	3.16	4.12	10.5	3.11	–	5.15	3.84	3.34	10.4	1760	1.25	2540	1670	–	1640	1830	1800
CC(C)CCCC(C)[C@H]1CCC2[C@@H]3CCC4Nc5c(cnn5-c5ccccc5)C[C@]4(C)C3CC[C@@]21C (stereo partly specified)	> 100	> 100	> 100	> 100	> 100	> 100	> 100	8.8	> 100	–	–	–	–	–	–	–	–	–
COc1ccc(CCn2c(=O)c3ccccc3n(C)c2=O)cc1	> 100	> 100	> 100	–	> 100	> 100	> 100	–	> 100	–	–	–	–	–	–	–	–	–
CCOC(=O)N1CCc2cc(OC)c(OC)cc2/C1=C\c1ccc(OC)c(OC)c1	68.5	94	72	53.1	> 100	> 10	91.1	54.2	92.9	–	–	–	–	–	–	–	–	–
CC(C)OP(=O)(OC(C)C)/C(N)=N/Nc1ccc([N+](=O)[O-])cc1	–	> 100	> 100	> 100	–	> 100	> 100	–	> 100	–	–	–	–	–	–	–	–	–
N/N=C1\C(=O)N(c2ccc(Cl)cc2Cl)C(=O)C(=O)C1c1nc2ccccc2o1 (stereo unspecified)	> 100	> 100	> 100	> 100	> 100	> 100	> 100	–	> 100	–	–	–	–	–	–	–	–	–
c1ccc2c(c1)oc1ccc3nsnc3c12	> 100	> 100	> 100	> 100	> 100	> 100	> 100	> 100	–	–	–	–	–	–	–	–	–	–
CC(=O)[O-].[Mn+3].[O-]c1ccccc1C=NCCNCCN=Cc1ccccc1[O-]	–	> 100	> 100	> 100	> 100	> 100	> 100	> 100	> 100	–	> 100000	86.1	> 100000	> 100000	> 100	> 100000	> 100000	> 100000
COC(=O)c1c2c(cc3c1CC1(Cc4cc5c(c(C(C)=O)c4C1)CCC5)C3)CCC2 (stereo unspecified)	–	> 100	> 100	86.4	> 100	> 100	> 100	95.7	> 100	–	–	–	–	–	–	–	–	–
CC(C)(C)C(=CS(=O)/N=C/c1ccccc1)C(C)(C)C (stereo unspecified)	> 100	> 100	49.8	–	71.2	86.4	54.3	74.5	84.7	–	–	–	–	–	–	–	–	–
